Results: PubChem BioAssay AID1963835 (Molecular Pharmacology Branch, DTP, NCI, 2024)
pIC50: −log10 of the molar value.

System: 699152-130-R-J1-PDC complex spheroid viability
Assay: Anticancer human tumor 699152-130-R-J1-PDC patient-derived pancreatic carcinoma cell line growth inhibition [POLQ]
Conditions: for pIC50: curve of first compound; for viability, T/C: stronger effect = lower value; active means viability on the fitted dose curve at most 10% of control; inactive means the rest
Method in brief: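 Three-cell-type spheroids modelling solid tumor plus stroma served as the readout system; POL inhibitors were tested individually and in combination, concentration ranges set by clinical Cmax where known.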

[1] = second compound 0.0316 µM, first compound 0.0316 µM
[2] = second compound 0.0316 µM, first compound 0.1 µM
[3] = second compound 0.1 µM, first compound 0.0316 µM
[4] = second compound 0.1 µM, first compound 0.1 µM
[5] = second compound 0.316 µM, first compound 0.0316 µM
[6] = second compound 0.316 µM, first compound 0.1 µM
[7] = second compound 1 µM, first compound 0.0316 µM
[8] = second compound 1 µM, first compound 0.1 µM
[9] = second compound 3.16 µM, first compound 0.0316 µM
[10] = second compound 3.16 µM, first compound 0.1 µM
[11] = second compound 10 µM, first compound 0.0316 µM
[12] = second compound 10 µM, first compound 0.1 µM
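Further: spheroids exposed to agents for 7 days before viability reading.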
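Wherever viability, T/C is given: percent of DMSO vehicle control viability so 100% = vehicle and 0% = no viable signal.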

COc1cccc2c1C(=O)c1c(O)c3c(c(O)c1C2=O)CC(O)(C(=O)CO)CC3OC1CC(N)C(O)C(C)O1 (centres undefined) + Nc1ccc(C#CCN(C(=O)Cc2ncc(C(F)(F)F)cc2C(F)(F)F)c2ccc(F)cc2)nn1
inactive: viability, T/C [1] 78% | viability, T/C [2] 61.9% | viability, T/C (second compound 0.0316 µM, first compound 0.316 µM) 51.9% | viability, T/C (second compound 0.0316 µM, first compound 1 µM) 36.6% | viability, T/C (second compound 0.0316 µM, first compound 3.16 µM) 2.41% | viability, T/C [3] 76.7% | viability, T/C [4] 69.8% | viability, T/C (second compound 0.1 µM, first compound 0.316 µM) 51.9% | viability, T/C (second compound 0.1 µM, first compound 1 µM) 37.5% | viability, T/C (second compound 0.1 µM, first compound 3.16 µM) 3% | viability, T/C [5] 78.9% | viability, T/C [6] 73.3% | viability, T/C (second compound 0.316 µM, first compound 0.316 µM) 49.7% | viability, T/C (second compound 0.316 µM, first compound 1 µM) 35.7% | viability, T/C (second compound 0.316 µM, first compound 3.16 µM) 5.24% | viability, T/C [7] 85% | viability, T/C [8] 57.9% | viability, T/C (second compound 1 µM, first compound 0.316 µM) 46.7% | viability, T/C (second compound 1 µM, first compound 1 µM) 28.6% | viability, T/C (second compound 1 µM, first compound 3.16 µM) 1.69% | viability, T/C [9] 85.2% | viability, T/C [10] 61.8% | viability, T/C (second compound 3.16 µM, first compound 0.316 µM) 51.2% | viability, T/C (second compound 3.16 µM, first compound 1 µM) 28.4% | viability, T/C (second compound 3.16 µM, first compound 3.16 µM) 2.48% | viability, T/C [11] 80.6% | viability, T/C [12] 72% | viability, T/C (second compound 10 µM, first compound 0.316 µM) 56.1% | viability, T/C (second compound 10 µM, first compound 1 µM) 31.9% | viability, T/C (second compound 10 µM, first compound 3.16 µM) 3.65%
6.38: pIC50 (second compound 10 µM)
6.58: pIC50 (second compound 3.16 µM)
active: viability, T/C (second compound 0.0316 µM, first compound 10 µM) 9.62% | viability, T/C (second compound 0.1 µM, first compound 10 µM) 7.86% | viability, T/C (second compound 0.316 µM, first compound 10 µM) 9.53% | viability, T/C (second compound 1 µM, first compound 10 µM) 12.1% | viability, T/C (second compound 3.16 µM, first compound 10 µM) 10.9% | viability, T/C (second compound 10 µM, first compound 10 µM) 10.6%
6.42: pIC50 (second compound 0.316 µM)
6.69: pIC50 (second compound 1 µM)
6.45: pIC50 (second compound 0.0316 µM)
6.39: pIC50 (second compound 0.1 µM)

Cn1ncnc1[C@H]1c2n[nH]c(=O)c3cc(F)cc(c23)N[C@@H]1c1ccc(F)cc1 + Cc1cccc(N(C)C(=O)C2C(O)CCN2c2nc(C)cc(C(F)(F)F)c2C#N)c1
< 7.00: pIC50 (second compound 0.0316 µM) | pIC50 (second compound 0.1 µM) | pIC50 (second compound 0.316 µM) | pIC50 (second compound 1 µM) | pIC50 (second compound 3.16 µM) | pIC50 (second compound 10 µM)
inactive: viability, T/C (second compound 0.0316 µM, first compound 0.000316 µM) 103% | viability, T/C (second compound 0.0316 µM, first compound 0.001 µM) 87.7% | viability, T/C (second compound 0.0316 µM, first compound 0.00316 µM) 95.1% | viability, T/C (second compound 0.0316 µM, first compound 0.01 µM) 88.6% | viability, T/C [1] 99.4% | viability, T/C [2] 81% | viability, T/C (second compound 0.1 µM, first compound 0.000316 µM) 100% | viability, T/C (second compound 0.1 µM, first compound 0.001 µM) 100% | viability, T/C (second compound 0.1 µM, first compound 0.00316 µM) 91.6% | viability, T/C (second compound 0.1 µM, first compound 0.01 µM) 99.3% | viability, T/C [3] 85.3% | viability, T/C [4] 86.6% | viability, T/C (second compound 0.316 µM, first compound 0.000316 µM) 94.8% | viability, T/C (second compound 0.316 µM, first compound 0.001 µM) 97.6% | viability, T/C (second compound 0.316 µM, first compound 0.00316 µM) 86.4% | viability, T/C (second compound 0.316 µM, first compound 0.01 µM) 89.3% | viability, T/C [5] 117% | viability, T/C [6] 73.6% | viability, T/C (second compound 1 µM, first compound 0.000316 µM) 100% | viability, T/C (second compound 1 µM, first compound 0.001 µM) 89.6% | viability, T/C (second compound 1 µM, first compound 0.00316 µM) 95% | viability, T/C (second compound 1 µM, first compound 0.01 µM) 87.2% | viability, T/C [7] 108% | viability, T/C [8] 87.2% | viability, T/C (second compound 3.16 µM, first compound 0.000316 µM) 94.1% | viability, T/C (second compound 3.16 µM, first compound 0.001 µM) 102% | viability, T/C (second compound 3.16 µM, first compound 0.00316 µM) 93.8% | viability, T/C (second compound 3.16 µM, first compound 0.01 µM) 95.7% | viability, T/C [9] 93% | viability, T/C [10] 90.7% | viability, T/C (second compound 10 µM, first compound 0.000316 µM) 104% | viability, T/C (second compound 10 µM, first compound 0.001 µM) 81.8% | viability, T/C (second compound 10 µM, first compound 0.00316 µM) 97.1% | viability, T/C (second compound 10 µM, first compound 0.01 µM) 88.5% | viability, T/C [11] 101% | viability, T/C [12] 83.5%
